US20220125913A1, “[…] PEPTIDES, AMINO-ACID SEQUENCES, AND COMPOSITIONS USEFUL FOR SARS-CoV-2 DETECTION AND COVID-19 PREVENTION” (priority 2020, published 2022)

System: SARS-CoV-2 circulation lineages in Colombia (B.1, B.1.111, B.1.111+E48K)
Details: in vivo, sc

Row | Sequence | sera neutralizing antibodies
1 | CGKDQVILLNKHIDAYKTFPPTGC [PHE-30] | detected
2 | CGVLSFELLHAPATVSGPKKSTNGC [PHE-14] | detected
3 | CGVTLAILTALRLSAYSSNIVGC [PHE-20] | detected
